Results reported in US20130224761A1, “NON COVALENT MOLECULAR STRUCTURE, COMPRISING A PORPHYRIN BASED GLYCOCONJUGATE, DEVICE COMPRISING THE SAME AND ITS USE FOR DETECTION OF LECTIN” (CENTRE NATIONAL DE LA RECHERCHE SCIENTIFIQUE (CNRS), priority 2011, published 2013).

Tests used:
[1] = biological target: T1, PA-IL lectin (Pseudomonas aeruginosa, UniProt Q05097); assay: SWNT-FET electronic detection of glycoconjugate-lectin interaction (G vs Vg); assay type: binding; conditions: SWNT-FET functionalized with glycoconjugate; 5 μM lectin, 5 μM Ca2+, PBS pH 7
T1 construct: made in house; host or cells: Escherichia coli
T1 sequence (Q05097 whole entry): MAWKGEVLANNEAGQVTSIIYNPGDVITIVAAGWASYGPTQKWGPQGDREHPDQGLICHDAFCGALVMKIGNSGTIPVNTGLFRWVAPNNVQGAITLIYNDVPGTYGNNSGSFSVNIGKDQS
Protocol: (§3) Lectin attachment was performed in the presence of 5 μM Ca^2+.
(§4) The electrical performance of each such obtained “SWNT-FET” device was investigated in electrolyte gated FET device configuration. […] A small fluid (1 mL) chamber was placed over the SWNT-FET device to control the liquid environment using phosphate buffer solution (PBS) at pH 7. A liquid gate potential (−0.75V to 0.75 V) with respect to the grounded drain electrode was applied using Ag/AgCl (3 M KCl) reference electrode submerged in the electrolyte. The drain current of the device was measured at a constant source-drain voltage of 50 mV.
This step was followed by incubating the chips for 30 minutes in different concentrations of lectin solutions prepared in PBS with 5 μM CaCl2 and latter rinsing with PBS solution.

[2] = test system: ConA lectin; assay: CCG-FET electronic detection of glycoconjugate-lectin interaction (G vs Vg); assay type: binding, Canavalia ensiformis; conditions: CCG-FET functionalized with glycoconjugate; 2 μM lectin, 5 μM Ca2+, PBS
Protocol: (§1) FIG. 6 illustrates the electronic detection of carbohydrate-lectin interactions.
(§2) For each glycoconjugate functionalized device, non-specific lectins were tested first, followed by washing procedures and measuring of specific lectin. The final transfer characteristics were tested again in the configuration mentioned above.

[3] = biological target: T1, PA-IL lectin; assay: as above; assay type: binding; conditions: CCG-FET functionalized with glycoconjugate; 2 μM lectin, 5 μM Ca2+, PBS
Protocol: as §1, §2

[4] = test system: PA-IIL lectin; conditions: SWNT-FET functionalized with glycoconjugate; 5 μM lectin per FIG. 5 legend (1 μM elsewhere in the source), 5 μM Ca2+, PBS pH 7
Protocol: as §3, §4
Surface functionalization of SWNT FET device with each porphyrin based glycoconjugate respectively named “5a”, “5b” and “5c” was performed by incubating them in their 5 μM solution in deionized water for 2 hours followed by rinsing with deionized water. This step was followed by incubating the chips for 30 minutes in different concentrations of lectin solutions prepared in PBS with 5 μM CaCl2 and latter rinsing with PBS solution.

[5] = test system: ConA lectin; assay: SWNT-FET electronic detection of glycoconjugate-lectin interaction (G vs Vg); assay type: binding, Canavalia ensiformis; conditions: SWNT-FET functionalized with glycoconjugate; 5 μM lectin, 5 μM Ca2+, PBS pH 7
From the text: ConA (25 kDa) is a plant lectin from Canavalia ensiformis that is specific for α-D-mannose and is available commercially from Sigma and used without further purification.

[6] = test system: ConA lectin; assay: AFM imaging of SWNT functionalized with glycoconjugate before and after ConA lectin attachment; assay type: binding, Canavalia ensiformis; conditions: 5 μM Ca2+
Protocol: Atomic force microscope (AFM) images (FIG. 4) were obtained using scanning probe microscope (Veeco Nanoscope II) in a tapping mode configuration. Samples were prepared by spin coating of bare or functionalized SWNTs onto a freshly cleaved sheet of mica. The images were taken after 30 min of drying in ambient and subsequent washing with PBS solution (for functionalized SWNTs).
FIG. 4a depicts a small bundle of bare SWNTs with diameter of 3.4 nm. After non covalent functionalization with glycoconjugate “5b” (non covalent molecular structure “SWNT-5b”), SWNT bundles show diameters of 11.7-14.6 nm (FIG. 4b). Con A lectin binding to the functionalized “SWNT-5b” nanostructures (“SWNT-5b-ConA”) increases SWNT diameters to 18.3 nm (FIG. 4c).

Compound	change in G vs Vg curve (threshold voltage, conductance) on treating with PA-IL lectin [1]	change in G vs Vg curve (threshold voltage, conductance) on treating with ConA lectin [2]	change in G vs Vg curve (threshold voltage, conductance) on treating with PA-IL lectin [3]	change in G vs Vg curve (threshold voltage, conductance) on treating with PA-IIL lectin [4]	change in G vs Vg curve (threshold voltage, conductance) on treating with ConA lectin [5]	binding of Con A lectin to glycoconjugate on the surface of SWNTs (AFM) [6]	SWNT diameter after Con A lectin binding to functionalized SWNT (AFM) ([6]; SWNT-5b-ConA, 11.7-14.6 nm before lectin, bare SWNT bundle 3.4 nm) [nm]
5,10,15,20-Tetrakis(4′-{1-[(β-D-galactopyranosyloxy)-3,6-dioxaoct-8-yl]-1,2,3-triazol-4-yl}methyleneoxyphenyl)-Zn-(II)-porphyrin [5a]	selective response	no significant change	negative shift in threshold voltage and further decrease in conductance	–	–	–	–
C[C@@H]1O[C@@H](OCCOCCOCCn2cc(COc3ccc(-c4c5nc(c(-c6ccc(OCc7cn(CCOCCOCCO[C@@H]8O[C@@H](C)[C@@H](O)[C@@H](O)[C@@H]8O)nn7)cc6)c6ccc([n-]6)c(-c6ccc(OCc7cn(CCOCCOCCO[C@@H]8O[C@@H](C)[C@@H](O)[C@@H](O)[C@@H]8O)nn7)cc6)c6nc(c(-c7ccc(OCc8cn(CCOCCOCCO[C@@H]9O[C@@H](C)[C@@H](O)[C@@H](O)[C@@H]9O)nn8)cc7)c7ccc4[n-]7)C=C6)C=C5)cc3)nn2)[C@@H](O)[C@H](O)[C@@H]1O.[Zn+2] [5c, 5,10,15,20-Tetrakis(4′-{1-[(α-L-fucopyranosyloxy)-3,6-dioxaoct-8-yl]-1,2,3-triazol-4-yl}methyleneoxyphenyl)-Zn-(II)-porphyrin]	–	–	–	positive interactions	–	–	–
5,10,15,20-Tetrakis(4′-{1-[(α-D-mannopyranosyloxy)-3,6-dioxaoct-8-yl]-1,2,3-triazol-4-yl}methyleneoxyphenyl)-Zn-(II)-porphyrin [5b]	–	negative shift in threshold voltage and further decrease in conductance	no significant change	no significant change	positive interaction	specific binding	18.3
